Consider 1 compound from patent publication US20120270293A1, “STAND[…] TISSUE SPECIMEN PR[…] […] T[…]” (priority 2009, published 2012).

For this assay, the target named is RNase A (Bos taurus, UniProt P61823). Particulars: free solution reaction. Here is the method: FIG. 13. RNase A at designated amount was incubated with NBF at RT or 4° C. for 5 min and then mixed with 2 μg yeast tRNA and incubated at room temperature for 30 min for RNase A digestion and separated by 2% agarose gel. The tRNA molecules were between 50-100 nucleotides in length.
We have designed a series of direct forward biochemistry experiments to compare various chemical reagents such as formalin, RNA Later, methanol/alcohol, as well as heating conditions (boiling or autoclaving) in inhibiting the RNase bioactivity. […] We also compare the inhibition ability of formalin at room temperature and 4 degree C.

Sequence of RNase A (P61823 27-150): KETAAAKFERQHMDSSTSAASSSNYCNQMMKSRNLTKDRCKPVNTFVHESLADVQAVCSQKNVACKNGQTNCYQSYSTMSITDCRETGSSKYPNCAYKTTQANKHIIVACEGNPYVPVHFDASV

As to `C=O` [formalin], under “compared with RNA Later, methanol/alcohol, boiling or autoclaving”, the “inhibiting the RNase bioactivity” value is reported as “best RNase inhibitor”. The “inhibition ability of formalin at room temperature and 4 degree C” value (room temperature versus 4 degree C) is on record as “No difference”.
